Reference: US6710168B1, “Glycopeptide antibiotics, combinatorial libraries of glycopeptide antibiotics and methods of producing same” (The Trustees of the University of Princeton, priority 1999, dated 2004)
≈ marks a conversion by molar mass, not a printed value.

Experiments:
Type in all cases: cell-based
[1] = test system: Bacillus cereus (ATCC 11778); assay: MIC susceptibility test, microdilution with MTT readout; conditions: for MIC BC: Bacillus ceres ATCC11778
Method: (§1) Evaluation of vancomycin analogs is performed using in vitro susceptibility tests and a time-kill assay. [NCCL Standard, 1993] In susceptibility tests, five strains of bacteria, two of the most important: Staphylococcus aureus and Enterococcus faecalis (both susceptible and resistant strains), and Bacillus cereus are chosen and bacteria viability remaining in each well is evaluated using a colorimetric assay based on the tetrazolium salt 3-(4,5-dimethyl-2-thiazolyl)-2,5-diphenyl-2H tetrazolium bromide (MTT) and minimum inhibitory concentration (MIC) values are determined as μg/mL. [Mosmann, T. (1983); Damour, O., et al. (1992); Mikami, Y., et al. (1994)] This assay gives susceptibility information quickly, efficiently, and clearly.
(§2) All strains [Bacillus cereus (ATCC® 11778), Staphylococcus aureus (ATCC® 29213), Methicillin resistant Staphylococcus aureus (ATCC® 33591), Enterococcus faecalis (ATCC® 29212), and gentamicin, streptmycin, vancomycin resistant Enterococcus faecalis (ATCC® 51299), are purchased from REMEL (Lenexa, Kans.).
(§3) MICs are determined by the microdilution method using 96-well microplates. Samples are suspended with Cation Adjusted (20 to 25 mg of Ca^2+/mL and 10 to […] of Mg^2+) Mueller-Hinton broth (Difco Laboratories, Detroit, Mich.) and are two-fold diluted from 5 μg/mL to […] on microplates (12 step dilution). To each well, which contained 100 μL of cell suspension (10^6 CFU/mL), 100 μL of antibiotic solution is added and the plates are incubated at 37° C. for 24 h. 50 μL of MTT solution (1 mg/mL) is added to each well, then the plates are incubated under the same conditions (incubation time; 30 min for Bacillus cereus, Staphylococcus aureus, and Methicillin resistant Staphylococcus aureus; 2 hours for Enterococcus faecalis and Gentamicin, Streptmycin, Vancomycin Enterococcus faecalis). MTT is a yellow tetrazolium salt that is reduced by mitochondrial enzymes in viable cells to an insoluble blue formazan product. MIC values are evaluated by observing the lowest drug concentration to inhibit bacteria growth.

[2] = test system: Enterococcus faecalis (ATCC 29212); assay: as above; conditions: for MIC EF: Enterococcus faecalis ATCC29212
Method: as §1, §2, §3

[3] = test system: Methicillin resistant Staphylococcus aureus (ATCC 33591); assay: as above; conditions: for MIC MRSA: Staphylococcus aureus ATCC3359, Methicillin resistance
Method: as §1, §2, §3

[4] = test system: Staphylococcus aureus (ATCC 29213); assay: as above; conditions: for MIC SA: Staphylococcus aureus ATCC29213
Method: as §1, §2, §3

[5] = test system: gentamicin, streptmycin, vancomycin resistant Enterococcus faecalis (ATCC 51299); assay: microbe, parasite or virus in culture; conditions: for MIC VREF: Enterococcus faecalis ATCC51299, vancomycin resistance
Method: as §1, §2, §3

[6] = test system: Enterococcus faecium CL5137, VanA; assay: MIC susceptibility test; conditions: for MIC CL5137: Enterococcus faecium CL5137, VanA
[7] = test system: Enterococcus faecalis CL5244, VanB; assay: MIC susceptibility test; conditions: for MIC CL5244: Enterococcus faecalis CL5244, VanB
Method: as §1, §3

| Compound | MIC BC [1] | MIC EF [2] | MIC MRSA [3] | MIC SA [4] [µg/mL] | MIC VREF [5] | MIC CL5137 [6] [µg/mL] | MIC CL5244 [7] [µg/mL] | MIC ([1]; Bacillus cereus, ATCC11778, read-out: MIC BC) [µg/mL] | MIC ([2]; Enterococcus faecalis, ATCC29212, read-out: MIC EF) [µg/mL] | MIC ([3]; Staphylococcus aureus, ATCC 3359 / ATCC 33591 / MRSA, read-out: MIC MRSA) [µg/mL] | MIC ([4]; Staphylococcus aureus, ATCC29213, read-out: MIC SA) [µg/mL] | MIC ([5]; Enterococcus faecalis, ATCC51299, read-out: MIC VREF) [µg/mL] | MIC ([6]; Enterococcus faecium, read-out: MIC CL5137) [µg/mL] | MIC ([7]; Enterococcus faecalis, read-out: MIC CL5244) [µg/mL] |
| --- | --- | --- | --- | --- | --- | --- | --- | --- | --- | --- | --- | --- | --- | --- |
| CNC(CC(C)C)C(=O)NC1C(=O)NC(CC(N)=O)C(=O)NC2C(=O)NC3C(=O)NC(C(=O)NC(C(=O)O)c4cc(O)cc(O)c4-c4cc3ccc4O)C(O)c3ccc(c(Cl)c3)Oc3cc2cc(c3OC2OC(CN=P(c3ccccc3)(c3ccccc3)c3ccccc3)C(O)C(O)C2OC2CC(C)(NCc3ccc(-c4ccc(Cl)cc4)cc3)C(O)C(C)O2)Oc2ccc(cc2Cl)C1O.O=C(O)C(F)(F)F (stereo not shown) [CXXXVI, N-4-(4-Chlorophenyl)benzyl Vancosamine-glucose-C6-iminotriphenylphosphorane Vancomycin] | 1.3 µg/mL | 0.32 µg/mL | 0.32 µg/mL | 1.3 | 0.16 µg/mL | 5.0 | 0.32 | – | – | – | – | – | – | – |
| CN[C@H](CC(C)C)C(=O)N[C@H]1C(=O)N[C@@H](CC(N)=O)C(=O)N[C@H]2C(=O)N[C@H]3C(=O)N[C@H](C(=O)N[C@H](C(=O)O)c4cc(O)cc(O)c4-c4cc3ccc4O)[C@H](O)c3ccc(c(Cl)c3)Oc3cc2cc(c3OC2OC(CO)C(O)C(O)C2OC2CC(C)(N)C(O)C(C)O2)Oc2ccc(cc2Cl)[C@H]1O (stereo partly shown) [I, vancomycin, reference compound] | – | – | – | – | – | – | – | 1 (≈ 0.69 µM) | 1.3 (≈ 0.897 µM) | 1.3 (≈ 0.897 µM) | 1 (≈ 0.69 µM) | > 5 | 1600 (≈ 1100 µM) | 25 (≈ 17.3 µM) |
| CNC(CC(C)C)C(=O)NC1C(=O)NC(CC(N)=O)C(=O)NC2C(=O)NC3C(=O)NC(C(=O)NC(C(=O)O)c4cc(O)cc(O)c4-c4cc3ccc4O)C(O)c3ccc(c(Cl)c3)Oc3cc2cc(c3OC2OC(CNCc3ccc(-c4ccc(Cl)cc4)o3)C(O)C(O)C2OC2CC(C)(NCc3ccc(-c4ccc(Cl)cc4)cc3)C(O)C(C)O2)Oc2ccc(cc2Cl)C1O (stereo not shown) [L, Glucose-C6-N-5-(4-chlorophenyl)furan-1-methylene-vancosamine-N-4-(4-chlorophenyl)benzyl Vancomycin] | 3.8 µg/mL (≈ 2.07 µM) | 1.3 µg/mL (≈ 0.707 µM) | 2.5 µg/mL (≈ 1.36 µM) | 5.0 (≈ 2.72 µM) | 1.0 µg/mL (≈ 0.544 µM) | 6.3 (≈ 3.42 µM) | 0.8 (≈ 0.435 µM) | – | – | – | – | – | – | – |
| CNC(CC(C)C)C(=O)NC1C(=O)NC(CC(N)=O)C(=O)NC2C(=O)NC3C(=O)NC(C(=O)NC(C(=O)O)c4cc(O)cc(O)c4-c4cc3ccc4O)C(O)c3ccc(c(Cl)c3)Oc3cc2cc(c3OC2OC(CSC(C)C)C(O)C(O)C2OC2CC(C)(N)C(O)C(C)O2)Oc2ccc(cc2Cl)C1O (stereo not shown) [LIII, Glucose-C6-thiopropianato Vancomycin] | 1.3 µg/mL (≈ 0.862 µM) | 2.5 µg/mL (≈ 1.66 µM) | 2.5 µg/mL (≈ 1.66 µM) | 2.5 (≈ 1.66 µM) | 5.0< μg/mL | – | – | – | – | – | – | – | – | – |
| CNC(CC(C)C)C(=O)NC1C(=O)NC(CC(N)=O)C(=O)NC2C(=O)NC3C(=O)NC(C(=O)NC(C(=O)O)c4cc(O)cc(O)c4-c4cc3ccc4O)C(O)c3ccc(c(Cl)c3)Oc3cc2cc(c3OC2OC(CSCC(=O)O)C(O)C(O)C2OC2CC(C)(N)C(O)C(C)O2)Oc2ccc(cc2Cl)C1O (stereo not shown) [LXXI, Glucose-C6-thioacetato Vancomycin] | 5.0< μg/mL | 5.0< μg/mL | 5.0< μg/mL | 5.0 (≈ 3.28 µM) | 5.0< μg/mL | – | – | – | – | – | – | – | – | – |
| CCCCCCCCCCNCC1OC(Oc2c3cc4cc2Oc2ccc(cc2Cl)C(O)C2NC(=O)C(NC(=O)C4NC(=O)C(CC(N)=O)NC(=O)C(NC(=O)C(CC(C)C)NC)C(O)c4ccc(c(Cl)c4)O3)c3ccc(O)c(c3)-c3c(O)cc(O)cc3C(C(=O)O)NC2=O)C(OC2CC(C)(N)C(O)C(C)O2)C(O)C1O (stereo not shown) [XXXI, Glucose-C6-N-decyl Vancomycin] | 1.3 µg/mL (≈ 0.818 µM) | 0.32 µg/mL (≈ 0.201 µM) | 1.3 µg/mL (≈ 0.818 µM) | 1.3 (≈ 0.818 µM) | 2.5 µg/mL (≈ 1.57 µM) | – | – | – | – | – | – | – | – | – |
| CNC(=S)NCC1OC(Oc2c3cc4cc2Oc2ccc(cc2Cl)C(O)C2NC(=O)C(NC(=O)C4NC(=O)C(CC(N)=O)NC(=O)C(NC(=O)C(CC(C)C)NC)C(O)c4ccc(c(Cl)c4)O3)c3ccc(O)c(c3)-c3c(O)cc(O)cc3C(C(=O)O)NC2=O)C(OC2CC(C)(N)C(O)C(C)O2)C(O)C1O (stereo not shown) [XXXII, Glucose-C6-N-thiocarbonyl Methylamino Vancomycin] | 1.9 µg/mL (≈ 1.25 µM) | 1.3 µg/mL (≈ 0.854 µM) | 2.5 µg/mL (≈ 1.64 µM) | 1.9 (≈ 1.25 µM) | 5.0 µg/mL (≈ 3.29 µM) | – | – | – | – | – | – | – | – | – |
| CNC(CC(C)C)C(=O)NC1C(=O)NC(CC(N)=O)C(=O)NC2C(=O)NC3C(=O)NC(C(=O)NC(C(=O)O)c4cc(O)cc(O)c4-c4cc3ccc4O)C(O)c3ccc(c(Cl)c3)Oc3cc2cc(c3OC2OC(CNC(=O)c3cccs3)C(O)C(O)C2OC2CC(C)(N)C(O)C(C)O2)Oc2ccc(cc2Cl)C1O (stereo not shown) [XXXIII, Glucose-C6-N-(thiophene-2-carboxamide) Vancomycin] | 1.3 µg/mL (≈ 0.834 µM) | 1.3 µg/mL (≈ 0.834 µM) | 2.5 µg/mL (≈ 1.6 µM) | 1.3 (≈ 0.834 µM) | 5.0 µg/mL (≈ 3.21 µM) | – | – | – | – | – | – | – | – | – |
| CNC(CC(C)C)C(=O)NC1C(=O)NC(CC(N)=O)C(=O)NC2C(=O)NC3C(=O)NC(C(=O)NC(C(=O)O)c4cc(O)cc(O)c4-c4cc3ccc4O)C(O)c3ccc(c(Cl)c3)Oc3cc2cc(c3OC2OC(CNC(=O)CN)C(O)C(O)C2OC2CC(C)(N)C(O)C(C)O2)Oc2ccc(cc2Cl)C1O (stereo not shown) [XXXIV, Glucose-C6-N-(glycine-carboxamide) Vancomycin] | 5.0 µg/mL (≈ 3.32 µM) | 2.5 µg/mL (≈ 1.66 µM) | 2.5 µg/mL (≈ 1.66 µM) | 1.9 (≈ 1.26 µM) | 5.0< μg/mL | – | – | – | – | – | – | – | – | – |
| CCCCCCCCCCCCCC(=O)NCC1OC(Oc2c3cc4cc2Oc2ccc(cc2Cl)C(O)C2NC(=O)C(NC(=O)C4NC(=O)C(CC(N)=O)NC(=O)C(NC(=O)C(CC(C)C)NC)C(O)c4ccc(c(Cl)c4)O3)c3ccc(O)c(c3)-c3c(O)cc(O)cc3C(C(=O)O)NC2=O)C(OC2CC(C)(N)C(O)C(C)O2)C(O)C1O (stereo not shown) [XXXV, Glucose-C6-N-myristoyl Vancomycin] | 3.8 µg/mL (≈ 2.29 µM) | 0.015 µg/mL (≈ 0.00904 µM) | 1.3 µg/mL (≈ 0.784 µM) | 2.5 (≈ 1.51 µM) | 0.16 µg/mL (≈ 0.0965 µM) | – | – | – | – | – | – | – | – | – |
| CNC(CC(C)C)C(=O)NC1C(=O)NC(CC(N)=O)C(=O)NC2C(=O)NC3C(=O)NC(C(=O)NC(C(=O)O)c4cc(O)cc(O)c4-c4cc3ccc4O)C(O)c3ccc(c(Cl)c3)Oc3cc2cc(c3OC2OC(CNC(=O)c3ccccc3I)C(O)C(O)C2OC2CC(C)(N)C(O)C(C)O2)Oc2ccc(cc2Cl)C1O (stereo not shown) [XXXVI, Glucose-C6-N-2-iodobenzoyl Vancomycin] | 1.3 µg/mL (≈ 0.775 µM) | 1.3 µg/mL (≈ 0.775 µM) | 2.5 µg/mL (≈ 1.49 µM) | 1.3 (≈ 0.775 µM) | 2.5 µg/mL (≈ 1.49 µM) | – | – | – | – | – | – | – | – | – |
